Experimental data as given in patent US8710233B2 (Gruenenthal GmbH, priority 2005, dated 2014).
pIC50, pKi: −log10 of the molar value.

Experiments:
vanilloid receptor (VR1) = target: T1, vanilloid receptor (VR1) (Homo sapiens, UniProt Q8NER1); experiment: FLIPR Ca2+ influx assay on CHO K1 cells transfected with the VR1 gene (pharmacological method II); assay type: cell-based; details: table 4; capsaicin; read-out: Ki (human) Cap.
T1 construct: expressed in transfected cells; host or cells: CHO K1 cells (ECACC), stably transfected
T1 sequence (Q8NER1 whole entry): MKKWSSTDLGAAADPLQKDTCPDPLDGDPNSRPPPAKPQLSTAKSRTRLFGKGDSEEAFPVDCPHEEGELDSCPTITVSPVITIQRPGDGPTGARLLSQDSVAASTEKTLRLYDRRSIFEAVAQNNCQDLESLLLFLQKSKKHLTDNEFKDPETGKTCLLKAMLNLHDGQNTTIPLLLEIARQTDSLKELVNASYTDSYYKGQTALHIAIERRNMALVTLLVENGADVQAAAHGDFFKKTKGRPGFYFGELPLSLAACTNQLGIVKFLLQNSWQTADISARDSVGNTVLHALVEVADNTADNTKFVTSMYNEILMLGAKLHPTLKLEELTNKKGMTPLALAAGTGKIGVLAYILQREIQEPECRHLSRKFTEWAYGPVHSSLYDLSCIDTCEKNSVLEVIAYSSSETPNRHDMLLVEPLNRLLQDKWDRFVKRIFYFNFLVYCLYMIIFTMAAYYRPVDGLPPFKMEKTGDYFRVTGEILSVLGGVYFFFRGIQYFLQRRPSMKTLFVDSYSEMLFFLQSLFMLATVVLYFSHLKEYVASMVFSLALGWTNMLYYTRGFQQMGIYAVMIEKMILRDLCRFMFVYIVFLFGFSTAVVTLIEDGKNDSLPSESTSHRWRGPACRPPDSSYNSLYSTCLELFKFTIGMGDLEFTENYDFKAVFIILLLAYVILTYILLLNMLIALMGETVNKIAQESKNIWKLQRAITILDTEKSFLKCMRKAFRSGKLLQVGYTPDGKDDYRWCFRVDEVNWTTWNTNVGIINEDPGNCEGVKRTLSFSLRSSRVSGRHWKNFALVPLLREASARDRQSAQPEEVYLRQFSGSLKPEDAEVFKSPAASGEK
Excerpt: In this FLIPR assay, the influx of Ca^2+ is quantified with the assistance of a Ca^2+-sensitive dye (type Fluo-4, Molecular Probes Europe BV, Leiden, Netherlands) in a Fluorescent Imaging Plate Reader (FLIPR, Molecular Devices, Sunnyvale, USA) as described below.
II. Functional Investigations on the Vanilloid Receptor (VR1)
The agonistic or antagonistic action of the substances to be investigated on the vanilloid receptor (VR1) may also be determined with the following assay. According to this assay, the influx of Ca^2+ through the channel is quantified with the assistance of a Ca^2+-sensitive dye (type Fluo-4, Molecular Probes Europe BV, Leiden, Netherlands) in a Fluorescent Imaging Plate Reader (FLIPR, Molecular Devices, Sunnyvale, USA).
Chinese hamster ovary cells (CHO K1 cells, European Collection of Cell Cultures (ECACC), Great Britain) are stably transfected with the VR1 gene. For functional investigations, these cells are plated out onto poly-D-lysine-coated, black 96 well plates with a clear bottom (BD Biosciences, Heidelberg, Germany) at a density of 25,000 cells/well. The cells are incubated overnight at 37° C. and 5% CO2 in a culture medium (Ham's Nutrient Mixture F12, 10 vol. % FCS (foetal calf serum), 18 μg/mL L-proline). On the following day, the cells are incubated with Fluo-4 (Fluo-4 2 μM, Pluronic F127 0.01 vol. %, Molecular Probes in HBSS (Hank's buffered saline solution), Gibco Invitrogen GmbH, Karlsruhe, Germany) for 30 minutes at 37° C. The plates are then washed 3 times with HBSS buffer and, after a further 15 minutes' incubation at room temperature, used for […] measurement in the FLIPR. […] Quantification proceeds by measuring the highest fluorescence intensity (FC, fluorescence counts) over time.
The FLIPR protocol comprises 2 additions of substance. The substances to be tested (10 μM) are firstly pipetted onto the cells and Ca^2+ influx is compared with the control (capsaicin 10 μM) (% activation relative to the Ca^2+ signal after addition of 10 μM of capsaicin). After 5 minutes' incubation, 100 nM of capsaicin are added and the influx of Ca^2+ is again determined.
The percentage inhibition in comparison with the maximum achievable inhibition with 10 μM capsaicin is calculated.

VR1/TRPV1 receptor = VR1/TRPV1 receptor (Homo sapiens, UniProt Q8NER1); experiment: IC50 (human) after pH stimulus; assay type: cell-based; details: for inhibition at 0.1 µM / inhibition at 1 µM / inhibition at 5 µM: read-out: inhibition in percent, IC50 (human) after pH stimulus; for inhibition at 1 µM / inhibition in percent, IC50 (human) after pH stimulus: ne = no effect, @ 1 μM; for pIC50: table 4
VR1/TRPV1 receptor, sequence (Q8NER1 whole entry): as above

Row | SMILES | pKi (vanilloid receptor (VR1)) | inhibition at 0.1 µM (VR1/TRPV1 receptor) [%] | inhibition at 1 µM (VR1/TRPV1 receptor) [%] | inhibition at 5 µM (VR1/TRPV1 receptor) [%] | inhibition in percent, IC50 (human) after pH stimulus (VR1/TRPV1 receptor) | pIC50 (VR1/TRPV1 receptor)
1 | Cc1ccc(Oc2nc(C(F)(F)F)ccc2CNC(=O)C(C)c2ccc(NS(C)(=O)=O)c(F)c2)cc1 (centres unmarked) [Example 345, 2-(3-fluoro-4-methylsulfonamido-phenyl)-N-(2-p-tolyloxy-6-trifluoromethyl-pyridin-3-ylmethyl)-propionamide] | 8.55 | 3 | 38 | 45 |  | 
2 | Cc1ccc(CNC(=O)C(C)c2ccc(NS(C)(=O)=O)c(F)c2)c(N2CCC(C)CC2)n1 (centres unmarked) [Example 316, N-(4,6′-dimethyl-3,4,5,6-tetrahydro-2H-[1,2′]bipyridinyl-3′-ylmethyl)-2-(3-fluoro-4-methylsulfonamido-phenyl)-propionamide] | 7.14 |  |  |  | ne @ 1 μM | 
3 | CC(C(=O)NCc1ccc(C(F)(F)F)cc1-c1ccc(C(C)(C)C)cc1)c1ccc(NS(C)(=O)=O)c(F)c1 (centres unmarked) [Example 320, N-(4′-tert-butyl-5-trifluoromethyl-biphenyl-2-ylmethyl)-2-(3-fluoro-4-methylsulfonamido-phenyl)-propionamide] | 8.96 |  |  |  |  | 7.44
4 | CCOCCOc1nc(C(C)(C)C)ccc1CNC(=O)C(C)c1ccc(NS(C)(=O)=O)c(F)c1 (centres unmarked) [Example 378, N-((6-tert-butyl-2-(2-ethoxyethoxy)pyridin-3-yl)methyl)-2-(3-fluoro-4-(methylsulfonamido)phenyl)propanamide] | 7.62 |  |  |  |  | 6.49
5 | CC(C(=O)NCc1ccc(C(F)(F)F)nc1C1CCCCC1)c1ccc(NS(C)(=O)=O)c(F)c1 (centres unmarked) [Example 291, N-(2-cyclohexyl-6-trifluoromethyl-pyridin-3-ylmethyl)-2-(3-fluoro-4-methylsulfonamido-phenyl)-propionamide] | 9.22 |  |  |  |  | 7.36
6 | CC(C)COc1nc(C(C)(C)C)ccc1CNC(=O)C(C)c1ccc(NS(C)(=O)=O)c(F)c1 (centres unmarked) [Example 353, N-(6-tert-butyl-2-isobutoxy-pyridin-3-ylmethyl)-2-(3-fluoro-4-methylsulfonamido-phenyl)-propionamide] | 9.22 | 28 | 25 |  |  | 
7 | CC(C)Oc1nc(C(C)(C)C)ccc1CNC(=O)C(C)c1ccc(NS(C)(=O)=O)c(F)c1 (centres unmarked) [Example 374, N-((6-tert-butyl-2-isopropoxypyridin-3-yl)methyl)-2-(3-fluoro-4-(methylsulfonamido)phenyl)propanamide] | 8.64 |  |  |  |  | 6.50
8 | CC1CCN(c2nc(C(F)(F)F)ccc2CNC(=S)C(C)c2ccc(NS(C)(=O)=O)c(F)c2)CC1 (centres unmarked) [Example 293, 2-(3-fluoro-4-methylsulfonamido-phenyl)-N-(4-methyl-6′-trifluoromethyl-3,4,5,6-tetrahydro-2H-[1,2′]bipyridinyl-3′-ylmethyl)-thiopropionamide] | 8.85 |  |  |  |  | 6.89
9 | CC(C(=O)NCc1ccc(C(F)(F)F)nc1C1=CCCCC1)c1ccc(NS(C)(=O)=O)c(F)c1 (centres unmarked) [Example 334, N-(2-cyclohex-1-enyl-6-trifluoromethyl-pyridin-3-ylmethyl)-2-(3-fluoro-4-methylsulfonamido-phenyl)-propionamide] | 9.15 |  |  |  |  | 7.00
10 | CC(C(=O)NCc1cnc(C(F)(F)F)cc1-c1ccccc1)c1ccc(NS(C)(=O)=O)c(F)c1 (centres unmarked) [Example 292, 2-(3-fluoro-4-methylsulfonamido-phenyl)-N-(4-phenyl-6-trifluoromethyl-pyridin-3-ylmethyl)-propionamide] | 7.49 |  | 6 | 63 |  | 
11 | CC(C(=O)NCc1ccc(C(F)(F)F)nc1OC1CCC(C(F)(F)F)CC1)c1ccc(NS(C)(=O)=O)c(F)c1 (centres unmarked) [Example 339, 2-(3-fluoro-4-methylsulfonamido-phenyl)-N-[6-trifluoromethyl-2-(4-trifluoromethyl-cyclohexyloxy)-pyridin-3-ylmethyl]-propionamide] | 9.52 |  |  |  |  | 7.85
12 | COc1ccc(-c2cc(C(F)(F)F)ccc2CNC(=O)C(C)c2ccc(NS(C)(=O)=O)c(F)c2)cc1OC (centres unmarked) [Example 325, N-(3′,4′-dimethoxy-5-trifluoromethyl-biphenyl-2-ylmethyl)-2-(3-fluoro-4-methylsulfonamido-phenyl)-propionamide] | 8.07 |  |  |  |  | 6.15
13 | CCCCCOc1nc(C(C)(C)C)ccc1CNC(=O)C(C)c1ccc(NS(C)(=O)=O)c(F)c1 (centres unmarked) [Example 328, N-(6-tert-butyl-2-pentyloxy-pyridin-3-ylmethyl)-2-(3-fluoro-4-methylsulfonamido-phenyl)-propionamide] | 9.10 |  |  |  |  | 6.89
14 | CCC(=O)N(c1ccccc1)C1CCN(c2nc(C(F)(F)F)ccc2CNC(=O)C(C)c2ccc(NS(C)(=O)=O)c(F)c2)CC1 (centres unmarked) [Example 307, 2-(3-fluoro-4-methylsulfonamido-phenyl)-N-[4-(phenyl-propionyl-amino)-6′-trifluoromethyl-3,4,5,6-tetrahydro-2H-[1,2′]bipyridinyl-3′-ylmethyl]-propionamide] | 8.30 |  |  |  |  | 6.34
15 | CC(C(=O)NCc1ccc(C(F)(F)F)nc1N1CC=C(c2ccc(F)cc2)CC1)c1ccc(NS(C)(=O)=O)c(F)c1 (centres unmarked) [Example 332, 2-(3-fluoro-4-methylsulfonamido-phenyl)-N-[4-(4-fluoro-phenyl)-6′-trifluoromethyl-3,6-dihydro-2H-[1,2′]bipyridinyl-3′-ylmethyl]-propionamide] | 8.62 |  |  |  |  | 6.80
16 | COc1ccc(-c2cc(C(F)(F)F)ccc2CNC(=O)C(C)c2ccc(NS(C)(=O)=O)c(F)c2)cc1 (centres unmarked) [Example 321, 2-(3-fluoro-4-methylsulfonamido-phenyl)-N-(4′-methoxy-5-trifluoromethyl-biphenyl-2-ylmethyl)-propionamide] | 9.10 |  |  |  |  | 7.42
17 | CCCCCc1nc(C(F)(F)F)ccc1CNC(=O)[C@@H](C)c1ccc(NS(C)(=O)=O)c(F)c1 [Example 144, (S)-2-(3-fluoro-4-methylsulfonamido-phenyl)-N-(2-pentyl-6-trifluoromethyl-pyridin-3-ylmethyl)-propionamide] | 9.00 |  |  |  |  | 6.84
18 | CCC(CC)Oc1nc(C(F)(F)F)ccc1CNC(=O)C(C)c1ccc(NS(C)(=O)=O)c(F)c1 (centres unmarked) [Example 335, N-[2-(1-ethyl-propoxy)-6-trifluoromethyl-pyridin-3-ylmethyl]-2-(3-fluoro-4-methylsulfonamido-phenyl)-propionamide] | 8.96 |  |  |  | ne @ 1 μM | 
19 | CCCOc1nc(C(C)(C)C)ccc1CNC(=O)C(C)c1ccc(NS(C)(=O)=O)c(F)c1 (centres unmarked) [Example 369, N-((6-tert-butyl-2-propoxypyridin-3-yl)methyl)-2-(3-fluoro-4-(methylsulfonamido)phenyl)propanamide] | 8.77 |  |  |  |  | 6.74
20 | CC(C)COc1nc(C(F)(F)F)ccc1CNC(=O)[C@@H](C)c1ccc(NS(C)(=O)=O)c(F)c1 [Example 96, (S)-2-(3-fluoro-4-methylsulfonamido-phenyl)-N-(2-isobutoxy-6-trifluoromethyl-pyridin-3-ylmethyl)-propionamide] | 9.30 |  |  |  |  | 7.52
21 | CC(C(=O)NCc1ccc(C(F)(F)F)nc1NCC1CCN(C(=O)OC(C)(C)C)CC1)c1ccc(NS(C)(=O)=O)c(F)c1 (centres unmarked) [Example 342, 4-[(3-{[2-(3-fluoro-4-methylsulfonamido-phenyl)-propionylamino]-methyl}-6-trifluoromethyl-pyridin-2-ylamino)-methyl]-piperidine-1-carbonic acid tert-butyl ester] | 7.71 |  |  |  |  | 5.94
22 | CC(C(=O)NCc1ccc(C(F)(F)F)nc1CCc1ccc(F)cc1)c1ccc(NS(C)(=O)=O)c(F)c1 (centres unmarked) [Example 303, 2-(3-fluoro-4-methylsulfonamido-phenyl)-N-{2-[2-(4-fluoro-phenyl)-ethyl]-6-trifluoromethyl-pyridin-3-ylmethyl}-propionamide] | 8.74 |  |  |  |  | 7.12
23 | CC(C(=O)NCc1ccc(C(F)(F)F)cc1-c1cccnc1)c1ccc(NS(C)(=O)=O)c(F)c1 (centres unmarked) [Example 46, 2-(3-fluoro-4-(methylsulfonamido)phenyl)-N-(2-(pyridin-3-yl)-4-(trifluoromethyl)benzyl)propanamide] | 7.23 |  |  | 40 |  | 
